± gives the expanded uncertainty stated by the source.
Conditions: 100 kPa, Liquid, Concentric cylinders viscometry

Row | Compound | viscosity (298.15 K) [mPa·s] | viscosity (318.15 K) [mPa·s] | viscosity (338.15 K) [mPa·s]
1 | CCCC[N+]1(C)CCCC1.O=S(=O)([N-]S(=O)(=O)C(F)(F)F)C(F)(F)F | 75.6 ± 12 | 34.3 ± 5.5 | 18.62 ± 3
2 | CCCCCC[N+]1(C)CCCC1.O=S(=O)([N-]S(=O)(=O)C(F)(F)F)C(F)(F)F | 98.3 ± 16 | 41.38 ± 6.6 | 21.88 ± 3.5
3 | CCC[N+]1(C)CCCC1.O=S(=O)([N-]S(=O)(=O)C(F)(F)F)C(F)(F)F | 56.6 ± 9.1 | 26.48 ± 4.2 | 15.55 ± 2.5

Reference: the NIST ThermoML archive (doi:10.1021/acs.jced.8b01237)
